What was measured:
[1] = target: SRSF protein kinase 1 (Homo sapiens) (UniProt Q96SB4); assay: Percentage SRPK1 activity remaining in the presence of 0.01uM inhibitor
[2] = target: MAP/microtubule affinity-regulating kinase 3 (Homo sapiens) (UniProt P27448); assay: Percentage MARK3 activity remaining in the presence of 0.01uM inhibitor; conditions: filed as antagonist
[3] = target: Serine/threonine-protein kinase Chk2 (Homo sapiens) (UniProt O96017); assay: Percentage CHK2 activity remaining in the presence of 0.01uM inhibitor
[4] = target: Homeodomain-interacting protein kinase 2 (Homo sapiens) (UniProt Q9H2X6); assay: Percentage HIPK2 activity remaining in the presence of 25uM inhibitor
[5] = target: T1, Serine/threonine-protein kinase Nek2 (Homo sapiens) (UniProt P51955); assay: Percentage NEK2a activity remaining in the presence of 25uM inhibitor
T1 sequence (whole entry): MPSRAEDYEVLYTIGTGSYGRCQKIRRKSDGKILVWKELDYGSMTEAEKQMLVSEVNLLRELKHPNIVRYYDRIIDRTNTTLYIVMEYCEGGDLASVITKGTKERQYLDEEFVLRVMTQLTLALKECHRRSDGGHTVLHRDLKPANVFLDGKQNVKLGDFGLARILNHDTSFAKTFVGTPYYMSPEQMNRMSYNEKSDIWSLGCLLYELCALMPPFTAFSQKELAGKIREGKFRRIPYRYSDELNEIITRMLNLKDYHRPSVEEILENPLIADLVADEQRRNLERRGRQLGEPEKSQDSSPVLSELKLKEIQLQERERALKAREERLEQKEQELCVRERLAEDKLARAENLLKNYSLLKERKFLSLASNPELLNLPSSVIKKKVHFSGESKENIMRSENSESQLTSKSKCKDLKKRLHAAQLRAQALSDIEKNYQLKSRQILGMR

[6] = target: RAC-alpha serine/threonine-protein kinase (Homo sapiens) (UniProt P31749); assay: Percentage PKBalpha activity remaining in the presence of 25uM inhibitor
[7] = target: Myosin light chain kinase, smooth muscle (Homo sapiens, UniProt Q15746); assay: Percentage SmMLCK activity remaining in the presence of 25uM inhibitor
[8] = target: Ribosomal protein S6 kinase beta-1 (Homo sapiens, UniProt P23443); assay: Percentage S6K1 activity remaining in the presence of 25uM inhibitor
[9] = target: T2, Inhibitor of nuclear factor kappa-B kinase subunit beta (Homo sapiens) (UniProt O14920); assay: Percentage IKK-beta activity remaining in the presence of 25uM inhibitor
T2 sequence (whole entry): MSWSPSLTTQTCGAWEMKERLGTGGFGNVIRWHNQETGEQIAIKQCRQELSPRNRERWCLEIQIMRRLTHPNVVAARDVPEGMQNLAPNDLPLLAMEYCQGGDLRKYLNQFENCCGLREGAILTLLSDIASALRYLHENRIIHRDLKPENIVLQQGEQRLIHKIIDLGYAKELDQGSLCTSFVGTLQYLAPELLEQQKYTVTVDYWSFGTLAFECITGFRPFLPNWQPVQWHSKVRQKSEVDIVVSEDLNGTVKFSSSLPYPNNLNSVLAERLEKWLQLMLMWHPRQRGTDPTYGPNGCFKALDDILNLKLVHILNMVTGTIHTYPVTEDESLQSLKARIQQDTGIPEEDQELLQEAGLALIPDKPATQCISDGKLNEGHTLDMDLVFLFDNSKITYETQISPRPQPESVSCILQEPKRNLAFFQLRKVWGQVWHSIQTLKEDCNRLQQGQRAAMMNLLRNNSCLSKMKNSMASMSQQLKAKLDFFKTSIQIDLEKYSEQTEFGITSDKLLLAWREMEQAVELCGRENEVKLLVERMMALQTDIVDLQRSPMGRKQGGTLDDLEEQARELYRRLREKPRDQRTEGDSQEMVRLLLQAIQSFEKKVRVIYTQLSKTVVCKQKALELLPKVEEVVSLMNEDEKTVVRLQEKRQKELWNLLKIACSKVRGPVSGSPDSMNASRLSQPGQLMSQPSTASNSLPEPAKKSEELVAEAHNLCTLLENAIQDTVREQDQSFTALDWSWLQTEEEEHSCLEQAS

[10] = target: Serine/threonine-protein kinase pim-2 (Homo sapiens, UniProt Q9P1W9); assay: Percentage PIM2 activity remaining in the presence of 25uM inhibitor
[11] = target: Mitogen-activated protein kinase 3 (Homo sapiens) (UniProt P27361); assay: Percentage ERK1 activity remaining in the presence of 25uM inhibitor
[12] = target: T3, MAP kinase-activated protein kinase 5 (Homo sapiens) (UniProt Q8IW41); assay: Percentage PRAK activity remaining in the presence of 25uM inhibitor
T3 sequence (whole entry): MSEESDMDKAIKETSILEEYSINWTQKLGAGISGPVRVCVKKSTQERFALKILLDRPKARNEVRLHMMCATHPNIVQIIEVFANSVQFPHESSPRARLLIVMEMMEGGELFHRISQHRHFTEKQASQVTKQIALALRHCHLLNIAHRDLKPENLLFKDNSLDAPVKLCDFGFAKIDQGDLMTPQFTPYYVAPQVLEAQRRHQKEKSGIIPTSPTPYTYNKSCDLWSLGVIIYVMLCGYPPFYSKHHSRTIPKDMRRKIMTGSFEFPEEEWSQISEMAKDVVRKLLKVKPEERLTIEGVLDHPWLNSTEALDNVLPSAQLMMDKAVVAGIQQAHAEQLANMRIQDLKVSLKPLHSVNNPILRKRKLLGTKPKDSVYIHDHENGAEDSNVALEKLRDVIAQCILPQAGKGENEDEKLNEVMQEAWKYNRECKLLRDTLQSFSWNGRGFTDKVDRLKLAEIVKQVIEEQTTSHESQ

[13] = target: Cyclin-dependent kinase 2/cyclin A (Homo sapiens) (UniProt P24941+P20248+P78396); assay: Percentage CDK2-cyclinA activity remaining in the presence of 25uM inhibitor; assay type: protein-complex assay
[14] = target: RAC-beta serine/threonine-protein kinase (Homo sapiens) (UniProt P31751); assay: Percentage PKBbeta activity remaining in the presence of 25uM inhibitor
[15] = target: cAMP-dependent protein kinase catalytic subunit alpha (Homo sapiens, UniProt P17612); assay: Percentage PKA activity remaining in the presence of […]uM inhibitor; conditions: at 25 µM

MAP/microtubule affinity-regulating kinase 3 (Homo sapiens), sequence (P27448 whole entry, looked up): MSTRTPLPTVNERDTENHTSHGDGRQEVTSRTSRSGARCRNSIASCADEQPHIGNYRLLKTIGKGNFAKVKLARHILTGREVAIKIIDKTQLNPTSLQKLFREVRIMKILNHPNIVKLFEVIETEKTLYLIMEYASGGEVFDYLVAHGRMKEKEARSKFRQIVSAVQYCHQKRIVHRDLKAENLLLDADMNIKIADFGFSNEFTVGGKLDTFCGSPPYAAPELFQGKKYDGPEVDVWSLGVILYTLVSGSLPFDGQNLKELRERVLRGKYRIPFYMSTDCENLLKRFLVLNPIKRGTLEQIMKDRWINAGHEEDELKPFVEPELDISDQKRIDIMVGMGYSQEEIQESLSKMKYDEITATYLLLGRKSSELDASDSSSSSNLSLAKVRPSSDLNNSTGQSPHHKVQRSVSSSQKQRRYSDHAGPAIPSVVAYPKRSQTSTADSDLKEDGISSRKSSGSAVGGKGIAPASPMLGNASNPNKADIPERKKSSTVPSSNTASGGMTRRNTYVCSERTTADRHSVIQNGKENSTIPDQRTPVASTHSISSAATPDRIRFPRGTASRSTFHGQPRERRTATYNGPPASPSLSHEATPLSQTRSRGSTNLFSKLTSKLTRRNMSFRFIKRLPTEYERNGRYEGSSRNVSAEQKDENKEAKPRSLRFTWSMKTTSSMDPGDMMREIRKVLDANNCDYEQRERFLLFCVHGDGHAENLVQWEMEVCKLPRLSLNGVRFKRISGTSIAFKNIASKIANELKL
Myosin light chain kinase, smooth muscle, sequence (Q15746 whole entry): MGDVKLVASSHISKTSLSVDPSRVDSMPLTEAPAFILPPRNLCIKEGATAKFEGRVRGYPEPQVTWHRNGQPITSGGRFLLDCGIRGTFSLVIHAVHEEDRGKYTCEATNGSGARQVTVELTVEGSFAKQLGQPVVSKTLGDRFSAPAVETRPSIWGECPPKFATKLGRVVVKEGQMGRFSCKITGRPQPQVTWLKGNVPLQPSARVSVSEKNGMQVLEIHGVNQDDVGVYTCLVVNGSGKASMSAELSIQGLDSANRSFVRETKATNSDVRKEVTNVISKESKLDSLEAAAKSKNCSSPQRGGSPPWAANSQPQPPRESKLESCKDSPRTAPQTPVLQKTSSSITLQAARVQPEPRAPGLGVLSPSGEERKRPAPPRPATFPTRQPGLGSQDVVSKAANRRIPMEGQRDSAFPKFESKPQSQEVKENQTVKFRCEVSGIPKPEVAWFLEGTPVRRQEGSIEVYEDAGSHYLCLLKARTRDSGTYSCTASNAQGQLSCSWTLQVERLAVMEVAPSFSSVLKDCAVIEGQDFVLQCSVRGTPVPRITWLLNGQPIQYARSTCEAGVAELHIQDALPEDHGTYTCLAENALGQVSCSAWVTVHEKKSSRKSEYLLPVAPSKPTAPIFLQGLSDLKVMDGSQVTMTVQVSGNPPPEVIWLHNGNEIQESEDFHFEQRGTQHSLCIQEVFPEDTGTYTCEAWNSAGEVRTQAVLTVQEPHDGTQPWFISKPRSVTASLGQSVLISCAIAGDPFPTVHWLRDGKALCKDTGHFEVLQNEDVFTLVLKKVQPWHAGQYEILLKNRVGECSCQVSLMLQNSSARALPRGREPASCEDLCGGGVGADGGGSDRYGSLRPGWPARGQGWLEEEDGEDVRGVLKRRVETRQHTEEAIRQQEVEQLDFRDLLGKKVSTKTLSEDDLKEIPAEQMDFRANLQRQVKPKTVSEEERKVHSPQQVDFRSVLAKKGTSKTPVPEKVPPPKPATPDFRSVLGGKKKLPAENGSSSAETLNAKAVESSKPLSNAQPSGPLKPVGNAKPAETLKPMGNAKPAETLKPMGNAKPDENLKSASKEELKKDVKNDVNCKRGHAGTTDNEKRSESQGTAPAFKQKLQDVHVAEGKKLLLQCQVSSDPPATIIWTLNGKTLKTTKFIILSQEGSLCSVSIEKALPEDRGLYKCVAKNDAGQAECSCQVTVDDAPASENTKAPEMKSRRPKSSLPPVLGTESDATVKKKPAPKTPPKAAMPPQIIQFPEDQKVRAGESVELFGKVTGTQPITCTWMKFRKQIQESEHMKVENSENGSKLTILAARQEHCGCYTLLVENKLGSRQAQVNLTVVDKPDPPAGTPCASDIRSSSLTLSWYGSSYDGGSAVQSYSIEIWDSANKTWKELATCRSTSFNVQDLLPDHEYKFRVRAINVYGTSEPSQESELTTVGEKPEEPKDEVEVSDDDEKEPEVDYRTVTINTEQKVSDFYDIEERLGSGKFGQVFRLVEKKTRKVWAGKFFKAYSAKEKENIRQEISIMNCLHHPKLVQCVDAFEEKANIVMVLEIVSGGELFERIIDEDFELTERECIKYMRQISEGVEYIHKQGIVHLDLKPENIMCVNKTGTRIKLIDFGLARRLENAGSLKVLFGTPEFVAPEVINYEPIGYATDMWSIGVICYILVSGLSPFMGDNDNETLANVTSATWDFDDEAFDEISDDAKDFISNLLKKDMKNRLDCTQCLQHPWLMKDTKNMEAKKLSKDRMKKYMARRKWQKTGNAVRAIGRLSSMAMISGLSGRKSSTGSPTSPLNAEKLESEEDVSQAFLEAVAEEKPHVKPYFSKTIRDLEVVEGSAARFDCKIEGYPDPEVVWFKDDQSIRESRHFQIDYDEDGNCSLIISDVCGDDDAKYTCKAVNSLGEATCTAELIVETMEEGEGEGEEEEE
Homeodomain-interacting protein kinase 2 (Homo sapiens), sequence (Q9H2X6 whole entry, looked up): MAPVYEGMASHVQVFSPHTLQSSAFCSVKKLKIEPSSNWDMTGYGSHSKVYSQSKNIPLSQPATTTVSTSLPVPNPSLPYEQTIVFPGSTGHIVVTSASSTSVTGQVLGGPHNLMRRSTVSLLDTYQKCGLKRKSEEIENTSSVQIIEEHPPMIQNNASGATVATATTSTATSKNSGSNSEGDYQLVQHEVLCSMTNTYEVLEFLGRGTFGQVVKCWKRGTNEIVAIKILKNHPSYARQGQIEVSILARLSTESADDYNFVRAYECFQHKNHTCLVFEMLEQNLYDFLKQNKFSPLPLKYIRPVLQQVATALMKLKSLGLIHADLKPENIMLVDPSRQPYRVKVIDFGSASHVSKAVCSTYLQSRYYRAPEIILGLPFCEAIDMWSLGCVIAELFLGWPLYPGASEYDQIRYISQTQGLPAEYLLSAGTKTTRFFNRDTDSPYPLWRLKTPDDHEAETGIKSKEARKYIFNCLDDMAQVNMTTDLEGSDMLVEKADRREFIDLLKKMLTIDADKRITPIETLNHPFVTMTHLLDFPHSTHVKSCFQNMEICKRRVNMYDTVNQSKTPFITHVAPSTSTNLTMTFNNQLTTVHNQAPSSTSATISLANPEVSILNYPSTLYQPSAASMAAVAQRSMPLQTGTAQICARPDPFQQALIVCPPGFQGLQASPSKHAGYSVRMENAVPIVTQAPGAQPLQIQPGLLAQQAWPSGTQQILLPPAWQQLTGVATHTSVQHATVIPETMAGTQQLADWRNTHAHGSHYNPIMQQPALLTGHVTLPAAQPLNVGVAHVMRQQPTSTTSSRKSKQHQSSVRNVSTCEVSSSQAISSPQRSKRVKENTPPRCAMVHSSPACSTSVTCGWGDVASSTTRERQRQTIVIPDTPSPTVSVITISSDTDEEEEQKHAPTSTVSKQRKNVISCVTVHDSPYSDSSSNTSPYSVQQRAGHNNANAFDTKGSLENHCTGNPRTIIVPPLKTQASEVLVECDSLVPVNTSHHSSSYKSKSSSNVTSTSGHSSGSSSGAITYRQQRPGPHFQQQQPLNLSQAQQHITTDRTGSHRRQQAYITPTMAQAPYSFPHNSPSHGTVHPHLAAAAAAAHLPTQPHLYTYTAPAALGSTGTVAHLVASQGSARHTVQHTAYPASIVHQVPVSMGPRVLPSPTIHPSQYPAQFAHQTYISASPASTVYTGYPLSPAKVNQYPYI
RAC-beta serine/threonine-protein kinase (Homo sapiens), sequence (P31751 whole entry): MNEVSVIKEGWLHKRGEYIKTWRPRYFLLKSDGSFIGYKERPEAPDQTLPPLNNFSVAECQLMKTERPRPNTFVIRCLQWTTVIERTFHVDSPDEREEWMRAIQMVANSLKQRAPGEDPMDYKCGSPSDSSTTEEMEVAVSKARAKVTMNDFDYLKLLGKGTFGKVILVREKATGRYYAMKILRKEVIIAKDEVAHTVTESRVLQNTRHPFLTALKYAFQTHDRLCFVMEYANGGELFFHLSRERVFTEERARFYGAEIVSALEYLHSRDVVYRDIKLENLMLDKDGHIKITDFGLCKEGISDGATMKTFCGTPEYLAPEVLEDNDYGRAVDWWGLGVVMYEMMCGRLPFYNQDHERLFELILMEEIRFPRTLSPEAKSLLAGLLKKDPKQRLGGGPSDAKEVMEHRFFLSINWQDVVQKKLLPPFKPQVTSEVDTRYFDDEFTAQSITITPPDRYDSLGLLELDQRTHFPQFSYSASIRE
RAC-alpha serine/threonine-protein kinase (Homo sapiens), sequence (P31749 whole entry): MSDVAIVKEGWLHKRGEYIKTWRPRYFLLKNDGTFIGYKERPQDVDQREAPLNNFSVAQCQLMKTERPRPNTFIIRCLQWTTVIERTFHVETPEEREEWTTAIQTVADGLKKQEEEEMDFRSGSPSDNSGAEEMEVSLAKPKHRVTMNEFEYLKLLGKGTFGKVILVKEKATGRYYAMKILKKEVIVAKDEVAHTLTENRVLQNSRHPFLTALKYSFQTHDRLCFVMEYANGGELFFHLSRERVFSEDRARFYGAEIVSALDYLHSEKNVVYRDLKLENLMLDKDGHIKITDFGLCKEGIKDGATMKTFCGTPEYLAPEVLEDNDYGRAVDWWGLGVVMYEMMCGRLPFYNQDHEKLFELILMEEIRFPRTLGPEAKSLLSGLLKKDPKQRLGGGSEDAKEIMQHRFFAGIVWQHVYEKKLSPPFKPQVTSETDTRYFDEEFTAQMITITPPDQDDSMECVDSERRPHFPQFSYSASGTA

Compound	Activity [1]	Activity [2]	Activity [3]	Activity [4]	Activity [5]	Activity [6]	Activity [7]	Activity [8]	Activity [9]	Activity [10]	Activity [11]	Activity [12]	Activity [13]	Activity [14]	Activity [15]	Activity ([8]; filed as antagonist)
O=C(NCCCNc1nc(Nc2cccc(NC(=O)N3CCCC3)c2)ncc1I)c1cccs1	99%	12%	91%	–	–	–	–	–	–	–	–	–	–	–	–	–
CN[C@@H]1C[C@H]2O[C@@](C)([C@@H]1OC)n1c3ccccc3c3c4c(c5c6ccccc6n2c5c31)C(=O)N[C@H]4O (stereo in doubt)	–	6%	96%	–	–	–	–	–	–	–	–	–	–	–	–	–
COc1cc(OC)c(/C=C2/C(=O)Nc3ccccc32)c(OC)c1	–	–	–	96%	75%	94%	70%	84%	90%	75%	91%	82%	83%	90%	82%	–
Cc1n[nH]c2ccc(-c3cncc(OC[C@@H](N)Cc4c[nH]c5ccccc45)c3)cc12	92%	–	–	–	–	–	–	–	–	–	–	–	–	–	–	–
NCCNS(=O)(=O)c1ccc(Cl)c2ccncc12	–	–	–	98%	85%	54%	84%	–	87%	55%	102%	81%	62%	89%	65%	49%
